US20230183228A1, “SUBSTITUTED PYRAZOLYL COMPOUNDS AND METHODS OF USE THEREOF” (Chinook Therapeutics Canada, Inc., priority 2020, published 2023)
Marks after values point to notes of the source that are not given here.

Key:
[1] = test system: fresh primary mouse hepatocytes; assay: Primary mouse hepatocyte assay (lactate production); type: cell-based
Experimental: Compounds were evaluated in an ex vivo assay consisting of fresh primary mouse hepatocytes. Hepatocytes were isolated from wild type mice (C57BL/6NCrl from Charles River Labs) using a two-step collagenase perfusion technique which involves a sequential perfusion of anesthetized mice with Hanks' balanced salt solution and collagenase. Following isolation, viable wild type hepatocytes (0.1 M cells/well) were incubated with test compound in presence of pyruvate and compound potency was evaluated by measuring the lactate produced by the cells using liquid chromatography coupled to mass spectrometry. Chromatographic separation was achieved on an XDB-C18 4.6×50 mm column (Agilent, Cat #927975-902) at a flow rate of 1 mL/min Mobile phase A consisted of 0.1% formic acid in water and mobile phase B consisted of acetonitrile. A gradient program was initiated starting at 5% B which was held for 1 minutes, then ramped from 5% to 95% B over 1 minute. After holding at 95% B for 1 minute, the program changed back to 5% B. The column was equilibrated with 5% B for […] before the next injection. The mass spectrometer was operated in negative mode with electrospray ionization. The following transition along with their collision energy (CE) were used: 89→43 (CE: −16 V) for lactate and 92→45 (CE: −16 V) for ^13C3-Lactate (internal standard).

[2] = target: T1, human recombinant C-terminal His-tagged LDHA (Homo sapiens, UniProt P00338); assay: Human LDHA enzyme assay; type: biochemical; conditions: 50 μM pyruvate, 50 μM NADH, no HSA
T1 construct: His (C)
Experimental: (§1) Compounds were dissolved in DMSO and preincubated with human recombinant C-terminal His-tagged LDHA (0.070 μg/mL) for 10 min at room temperature in assay buffer consisting 50 mM Tris, pH 7.5 and 100 mM NaCl in black walled, clear bottom, non-binding 96-well plates. Equal volumes of substrate solution containing 100 μM of pyruvate and 100 μM of NADH in assay buffer was added to each well (final concentration 0.035 μg/mL enzyme, 50 μM pyruvate, 50 μM NADH, and 1% DMSO). For human serum albumin (HSA) shift assay, the compounds were preincubated with the enzyme in assay buffer containing 20% HSA before substrate addition (final concentration 10% HSA). The reaction was monitored at 340 nm on a plate reader (Molecular Devices) in kinetic mode for 15 min. The rate of the reaction was determined by plotting absorbance vs time.

[3] = target: T1, human recombinant C-terminal His-tagged LDHA; assay: Human LDHA enzyme assay, human serum albumin (HSA) shift; type: biochemical; conditions: final concentration 10% HSA
Experimental: as §1

[4] = Liver and plasma concentrations in c57/bl6 mice; type: in vivo; conditions: 20 mg/kg PO
Experimental: [The procedure below names another organism; the source says it served here with some conditions changed.] (§2) Plasma and liver (target organ) concentrations of test compounds were determined in rats following a single per os (PO) administration of the test compounds. Male Sprague Dawley rats (6-8 weeks of age, Charles River Labs) were fasted overnight and a single dose of test compounds (10 mg/kg; as a suspension in 0.5% methyl cellulose) was administered by PO gavage. Rats were then sacrificed at 4 and 24 h after administration of the test compounds, and plasma and liver tissue samples were collected. Liver tissue samples were homogenized in 5 volumes of water:acetonitrile (50/50; v/v) mixture using a bead mill homogenizer. Plasma and liver homogenate samples were processed by protein precipitation using acetonitrile and the concentrations of the test compounds were determined by liquid chromatography-tandem mass spectrometry (SciEx triple quad 5500+ with Exion UPLC).
(§3) Liver and plasma exposures at the 4 h and 24 h timepoints for the various compounds are described in Table 5 below. Measured compound concentrations are as follows: ++++>10 μM; 10 μM≥+++>5 μM; 5 μM≥++>1 μM; 1 μM≥+>0.25 μM; and 0.25 μM≥−.

[5] = Liver-targeted tissue distribution profile study in rats; type: in vivo, Sprague Dawley rats; conditions: rat, single 10 mg/kg PO
Experimental: as §2, §3

[6] = Run at 0.4M cells/well concentration of hepatocytes

IC50 [2]	IC50 [3]	Measured Compound Concentrations Liver - 4 h [4]	Measured Compound Concentrations Liver - 24 h [4]	Measured Compound Concentrations Plasma - 4 h [4]	Measured Compound Concentrations Plasma - 24 h [4]	Measured Compound Concentrations Liver - 4 h [5]	Measured Compound Concentrations Liver - 24 h [5]	Measured Compound Concentrations Plasma - 4 h [5]	Measured Compound Concentrations Plasma - 24 h [5]	Compound	IC50 ([1]; 0.1 M cells/well)	IC50 [1, 6]
< 1 nM	10 to 100 nM	+++* (10 μM≥+++>5 μM)	−* (0.25 μM≥−)	−* (0.25 μM≥−)	−* (0.25 μM≥−)					NS(=O)(=O)c1ccc(Cc2c(-c3ccc(F)cc3)nn(-c3nc(C(=O)O)cs3)c2CC2CC2)cc1Cl [Example 10, 2-(4-(3-Chloro-4-sulfamoylbenzyl)-5-(cyclopropylmethyl)-3-(4-fluorophenyl)-1H-pyrazol-1-yl)thiazole-4-carboxylic acid]	100 to 250 nM	
< 1 nM	10 to 100 nM	++* (5 μM≥++>1 μM)		−* (0.25 μM≥−)						NS(=O)(=O)c1ccc(Cc2c(-c3ccc(F)cc3)nn(-c3nc(C(=O)O)cs3)c2CCC2CC2)cc1 [Example 6, 2-(5-(2-cyclopropylethyl)-3-(4-fluorophenyl)-4-(4-sulfamoylbenzyl)-1H-pyrazol-1-yl)thiazole-4-carboxylic acid]		250 to 1000 nM
< 1 nM	1 to 10 nM	++++* (++++>10 μM)		−* (0.25 μM≥−)						Cc1c(Cc2ccc(S(N)(=O)=O)c(F)c2)c(-c2ccc(F)cc2)nn1-c1nc(C(=O)O)cs1 [Example 3, 2-(4-(3-Fluoro-4-sulfamoylbenzyl)-3-(4-fluorophenyl)-5-methyl-1H-pyrazol-1-yl)thiazole-4-carboxylic acid]		250 to 1000 nM
< 1 nM	1 to 10 nM					+++ (10 μM≥+++>5 μM)	− (0.25 μM≥−)	− (0.25 μM≥−)	− (0.25 μM≥−)	NS(=O)(=O)c1ccc(Cc2c(-c3cccc(OC(F)(F)F)c3)nn(-c3nc(C(=O)O)cs3)c2CC2CC2)cc1F [Example 19, 2-(5-(cyclopropylmethyl)-4-(3-fluoro-4-sulfamoylbenzyl)-3-(3-(trifluoromethoxy)phenyl)-1H-pyrazol-1-yl)thiazole-4-carboxylic acid]	100 to 250 nM	
< 1 nM	1 to 10 nM	++* (5 μM≥++>1 μM)		−* (0.25 μM≥−)						NS(=O)(=O)c1ccc(Cc2c(-c3ccc(F)cc3)nn(-c3nc(C(=O)O)cs3)c2CC2CC2)cc1 [Example 5, 2-(5-(cyclopropylmethyl)-3-(4-fluorophenyl)-4-(4-sulfamoylbenzyl)-1H-pyrazol-1-yl)thiazole-4-carboxylic acid]		250 to 1000 nM
< 1 nM	10 to 100 nM					++ (5 μM≥++>1 μM)	− (0.25 μM≥−)	− (0.25 μM≥−)	− (0.25 μM≥−)	NS(=O)(=O)c1ccc(Cc2c(-c3cc(Cl)cc(Cl)c3)nn(-c3nc(C(=O)O)cs3)c2CC2CC2)cc1F [Example 26, 2-(5-(cyclopropylmethyl)-3-(3,5-dichlorophenyl)-4-(3-fluoro-4-sulfamoylbenzyl)-1H-pyrazol-1-yl)thiazole-4-carboxylic acid]	100 to 250 nM	
< 1 nM	1 to 10 nM					+++ (10 μM≥+++>5 μM)	− (0.25 μM≥−)	− (0.25 μM≥−)	− (0.25 μM≥−)	N#Cc1cc(-c2nn(-c3nc(C(=O)O)cs3)c(CC3CC3)c2Cc2ccc(S(N)(=O)=O)c(F)c2)ccc1F [Example 2, 2-(3-(3-Cyano-4-fluorophenyl)-5-(cyclopropylmethyl)-4-(3-fluoro-4-sulfamoylbenzyl)-1H-pyrazol-1-yl)thiazole-4-carboxylic acid]	< 100 nM	
< 1 nM	1 to 10 nM	++* (5 μM≥++>1 μM)	−* (0.25 μM≥−)	−* (0.25 μM≥−)	−* (0.25 μM≥−)					NS(=O)(=O)c1ccc(Cc2c(-c3ccc(F)c(OC(F)F)c3)nn(-c3nc(C(=O)O)cs3)c2CC2CC2)cc1F [Example 13, 2-(5-(cyclopropylmethyl)-3-(3-(difluoromethoxy)-4-fluorophenyl)-4-(3-fluoro-4-sulfamoylbenzyl)-1H-pyrazol-1-yl)thiazole-4-carboxylic acid]		250 to 1000 nM
1 to 10 nM	10 to 100 nM	++* (5 μM≥++>1 μM)		−* (0.25 μM≥−)						CCc1c(Cc2ccc(S(N)(=O)=O)cc2)c(-c2ccc(F)cc2)nn1-c1nc(C(=O)O)cs1 [Example 4, 2-(5-ethyl-3-(4-fluorophenyl)-4-(4-sulfamoylbenzyl)-1H-pyrazol-1-yl)thiazole-4-carboxylic acid]		250 to 1000 nM
< 1 nM	1 to 10 nM					++ (5 μM≥++>1 μM)	− (0.25 μM≥−)	− (0.25 μM≥−)	− (0.25 μM≥−)	NS(=O)(=O)c1ccc(Cc2c(-c3cccc(OCC(F)(F)F)c3)nn(-c3nc(C(=O)O)cs3)c2CC2CC2)cc1F [Example 22, 2-(5-(cyclopropylmethyl)-4-(3-fluoro-4-sulfamoylbenzyl)-3-(3-(2,2,2-trifluoroethoxy)phenyl)-1H-pyrazol-1-yl)thiazole-4-carboxylic acid]	< 100 nM	
< 1 nM	1 to 10 nM					++++ (++++>10 μM)	+ (1 μM≥+>0.25 μM)	− (0.25 μM≥−)	− (0.25 μM≥−)	NS(=O)(=O)c1ccc(Cc2c(-c3ccc(F)cc3)nn(-c3nc(C(=O)O)cs3)c2CC2CC2)cc1F [Example 1, 2-(5-(cyclopropylmethyl)-4-(3-fluoro-4-sulfamoylbenzyl)-3-(4-fluorophenyl)-1H-pyrazol-1-yl)thiazole-4-carboxylic acid]	< 100 nM	
< 1 nM	1 to 10 nM					+++ (10 μM≥+++>5 μM)	− (0.25 μM≥−)	− (0.25 μM≥−)	− (0.25 μM≥−)	NS(=O)(=O)c1ccc(Cc2c(-c3cccc(C(F)(F)F)c3)nn(-c3nc(C(=O)O)cs3)c2CC2CC2)cc1F [Example 18, 2-(5-(cyclopropylmethyl)-4-(3-fluoro-4-sulfamoylbenzyl)-3-(3-(trifluoromethyl)phenyl)-1H-pyrazol-1-yl)thiazole-4-carboxylic acid]	< 100 nM	
< 1 nM	1 to 10 nM					+++ (10 μM≥+++>5 μM)	− (0.25 μM≥−)	− (0.25 μM≥−)	− (0.25 μM≥−)	N#Cc1cccc(-c2nn(-c3nc(C(=O)O)cs3)c(CC3CC3)c2Cc2ccc(S(N)(=O)=O)c(F)c2)c1 [Example 11, 2-(3-(3-cyanophenyl)-5-(cyclopropylmethyl)-4-(3-fluoro-4-sulfamoylbenzyl)-1H-pyrazol-1-yl)thiazole-4-carboxylic acid]	< 100 nM	
